A short description of the data set: #2 Diesel solvency for DCOI testing. The data set is classed as physicochemical. The method, then: Solvency (i.e., ability to dissolve) of #2 diesel for DCOI was measured. Initially, different amounts of DCOI (98.5% purity) was dissolved in #2 diesel in respective vials to make a DCOI concentrate. Thereafter, the vials were stored at ambient temperature (i.e., 21 degrees Celsius+/−2 degrees) or 4 degrees Celsius for up to 7 days. During storage, the vials were monitored for phase separation, precipitation, and turbidity, which may indicate incompatibility between the organic solvent and the DCOI. Whenever a phase separation, precipitation or solution turbidity event happened, the vial was no longer monitored and the DCOI concentration in that solution was considered to be higher than the solvency of the organic solvent.
After two hours of storage at ambient temperature, it was observed that the solvency of #2 diesel for DCOI without any additional polar solvents was no greater than 15% by weight because the DCOI precipitated in the vials containing concentrations of DCOI of greater than 15% by weight. […] Therefore, the maximum solvency of #2 diesel is for DCOI was determined to be 15% by weight.

The values below come from patent US20240342947A1, “A WOOD PRESERVATIVE COMPOSITION COMPRISING 4,5-DICHLORO-2-OCTYLISOTHIAZOL-3(2H)-ONE, A METHOD TREATING A WOOD SUBSTRATE THEREWITH, AND A WOOD PRODUCT PRODUCED THEREFROM” (KOPPERS PERFORMANCE CHEMICALS, INC., priority 2021, published 2024).

Some results are limits rather than exact numbers.

`CCCCCCCCn1sc(Cl)c(Cl)c1=O` [DCOI, 4,5-dichloro-2-octylisothiazol-3 (2H)-one]: the “solvency of #2 diesel for DCOI” value (after two hours of storage at ambient temperature, without any additional polar solvents) is given as at most 15 % by weight. In addition, the “maximum solvency of #2 diesel for DCOI” value (ambient temperature, no solid DCOI precipitated after 7 days) came to 15 % by weight.
